We go through 22 compounds from patent US20030207812A1, “Cd45 inhibitors” (priority 2002, published 2003).

Like-named read-outs stand apart in the source and are kept apart here. Where a SMILES comes first, the peptide text is derived from it. The star is where a group is joined. 3Phenanthroyl(9,10-dioxo) = O=C1C(=O)c2ccc(C(=O)*)cc2-c2ccccc21; X1 = O=C1C(=O)c2cc(N*)ccc2-c2ccccc21

The test system of one data set is T cells (PBMC). Description: cells. It is filed as cell-based, human. The settings on record: read-out: T cell prolif. IC50. As for the experimental part:
Cell isolation and T cell proliferation assay:
Whole blood was obtained from healthy human blood donors. Peripheral blood mononuclear cells (“PBMC”) were isolated using Lymphoprep density-gradient centrifugation (Nycomed Amersham, Oslo, Norway), washed, counted and resuspended at 2×10^6 cells/mL in RPMI 1640 medium containing glutamine, 0.1 mg/mL gentamycin and 10% heat inactivated human serum. PBMC were transferred to 96-well plates (2×10^5 cells/well) containing compound or vehicle control, with the final concentration of DMSO not to exceed 0.3%, and incubated for 1 hour before addition of the activating anti-CD3 antibody, OKT3 (30ng/mL). After 24 hours in culture, the cells were pulsed with [^3H]thymidine (1 μCi/well) overnight and harvested the next day onto 96-well Packard GF/C filter plates using a Packard Cell Harvester (Packard Instruments, Meriden, Conn.). The filter plate was dried, the bottom of the plate sealed, 25 μL of Microscint 20 scintillation fluid added to each well, the top of the plate sealed with TopSeal-A, and the plate counted on a Packard TopCount. The data from the TopCount is transferred into Excel 5 (Microsoft, Redmond, Wash.) and formatted for EC50 determination using Prism software (GraphPad Software, San Diego, Calif.).

The nature of data set [1]: Cytotoxicity assay (Calcein-AM uptake). The settings on record: human, PHA-expanded T-cell lymphoblasts from PBMC.
Data set [2] deals with T1, CD45 (Homo sapiens, UniProt P08575).
T1 construct: incubating the cytosolic portion of CD45 with the compounds and p-nitrophenyl phosphate (pNPP); purchased BIOMOL (Plymouth Meeting, Pa.)
T1 sequence (P08575 599-1306 limits assumed): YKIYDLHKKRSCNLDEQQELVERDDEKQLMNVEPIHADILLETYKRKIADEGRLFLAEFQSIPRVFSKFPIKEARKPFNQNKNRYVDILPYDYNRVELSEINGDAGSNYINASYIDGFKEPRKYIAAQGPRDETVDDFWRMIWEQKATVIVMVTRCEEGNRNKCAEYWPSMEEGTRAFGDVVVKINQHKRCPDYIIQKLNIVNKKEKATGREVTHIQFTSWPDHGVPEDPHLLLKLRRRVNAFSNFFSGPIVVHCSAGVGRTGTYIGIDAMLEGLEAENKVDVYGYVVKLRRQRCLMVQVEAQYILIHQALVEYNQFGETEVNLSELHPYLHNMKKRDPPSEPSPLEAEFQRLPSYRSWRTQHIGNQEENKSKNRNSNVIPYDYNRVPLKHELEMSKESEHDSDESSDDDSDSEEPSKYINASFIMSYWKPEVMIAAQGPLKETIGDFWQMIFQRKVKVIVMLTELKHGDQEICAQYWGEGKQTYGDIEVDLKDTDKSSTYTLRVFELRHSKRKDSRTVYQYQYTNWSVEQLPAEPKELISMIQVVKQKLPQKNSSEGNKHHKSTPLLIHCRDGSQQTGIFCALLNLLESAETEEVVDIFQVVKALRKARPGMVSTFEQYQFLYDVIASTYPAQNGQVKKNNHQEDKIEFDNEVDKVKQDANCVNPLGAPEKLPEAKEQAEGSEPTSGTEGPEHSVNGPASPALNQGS
Nature of the data set: Phosphatase assay using pNPP as substrate. It is filed as biochemical. As for the experimental part:
Phosphatase assay using pNPP as substrate:
CD45 enzyme was obtained from BIOMOL (Plymouth Meeting, Pa.). Phosphatase activity was assayed in a buffer containing final concentrations of 25 mM imidazole at pH 7.0, 50 mM NaCl, 2.5 mM ethylenediaminetetraacetic acid (“EDTA”), 5 mM dithiothreitol (“DTT”) and 10 μg/mL bovine serum albumin (“BSA”) using pNPP as a substrate.

The target of data set [3] is T1, CD45. Description: Phosphatase assay using lck 10-mer as substrate. It is filed as biochemical. The settings on record: CD45 phosphatase, lck carboxy-terminal peptide TEGQpYQPQP substrate, pH 7.2; read-out: Ick IC50. As for the experimental part: Phosphatase assay using lck 10-mer as substrate:
Phosphatase activity was assayed in 96 well plates in a buffer containing final concentrations of 25 mM HEPES at pH 7.2, 5 mM DTT and 10 μg/mL BSA using the lck carboxy-terminal peptide TEGQpYQPQP as the substrate (Cho, H., Krishnaraj, R., Itoh, M., Kitas, E., Bannwarth, W., Saito, H., Walsh, C. T. 1993. Substrate specificities of catalytic fragments of protein tyrosine phosphatases (HPTPb, LAR, and CD45) toward the phosphotyrosylpeptide substrates and thiophosphotyrosylated peptides as inhibitors. Protein Science 2:977-984). Compounds were tested in a range from 30 to 0.01 μM in a final concentration of 5% DMSO. Enzyme was incubated with substrate with or without compound, at room temperature for 1.5 h. At the end of the incubation period, BIOMOL “Green Reagent” (BIOMOL, Plymouth Meeting, Pa.) was added to each well, the plates incubated at room temperature for 30 min and absorbance read at 620 nm.

Setting [4] is: human PBMC, OKT3 30 ng/mL, [3H]thymidine.
Where [5] appears, read: CD45 phosphatase, pNPP substrate, pH 7.0, read-out: pNPP IC50.

With `COC(=O)CCCC(=O)Nc1ccc2c(c1)C(=O)C(=O)c1cccc([N+](=O)[O-])c1-2` [Example 65, 4-(5-Nitro-9,10-dioxo-9,10-dihydro-phenanthren-2-ylcarbamoyl)-butyric Acid Methyl Ester], the IC50 – broadly, the concentration at which inhibition is half-maximal – with T cells (PBMC) (setting [4]) worked out at 0.6 µM; at CD45 [2] (setting [5]), 1.1 µM; on CD45 [3], 3.1 µM. Moreover, the half-maximal cytotoxic concentration (CC50) – broadly, the concentration that lowers cell viability or growth by half – in data set [1] was 15 µM.

Take `O=C1C(=O)c2ccc(NC(=O)c3ccccc3C(F)(F)F)cc2-c2ccccc21` [Example 13, N-(9,10-Dioxo-9,10-dihydro-phenanthren-3-yl)-2-trifluoromethyl-benzamide]: the CC50 in data set [1] is 14 µM. Also, the IC50 at CD45 [2] (setting [5]) came to 1.1 µM; at CD45 [3], 5.8 µM.

For `Cc1ccc(S(=O)(=O)N(c2ccc3c(c2)C(=O)C(=O)c2ccccc2-3)S(=O)(=O)c2ccc(C)cc2)cc1` [Example 14, N-(9,10-Dioxo-9,10-dihydro-phenanthren-2-yl)-4-methyl-N-[(4-methylphenyl)sulfonyl]-benzenesulfonamide], in data set [1], the CC50 is 5.3 µM. Besides, the IC50 on CD45 [2] (setting [5]) was 12.9 µM; at CD45 [3], above 30 µM.

Take `CC(=O)N[C@@H](C)C(=O)N[C@H](C(=O)N[C@@H](CCC(=O)O)C(=O)NCC(=O)N[C@@H](CCC(N)=O)C(=O)N[C@@H](CC(=O)Nc1ccc2c(c1)C(=O)C(=O)c1ccccc1-2)C(=O)O)[C@@H](C)O` [Example 60] (Ac-ATEGQD(X1)-OH): the IC50 at CD45 [2] (setting [5]) was 2 µM; on CD45 [3], 7.9 µM.

For `O=C1C(=O)c2cc(-c3cc4ccccc4o3)ccc2-c2ccccc21` [Example 16, 2-Benzofuran-2-yl-phenanthrene-9,10-dione], in data set [1], the CC50 is 3.6 µM. In addition, the IC50 at CD45 [2] (setting [5]) came out at 3.7 µM.

`O=C(O)c1ccc2c(c1)-c1ccccc1C(=O)C2=O` [Example 98, 9,10-Dioxo-9,10-dihydro-phenanthrene-3-carboxylic Acid]: the IC50 in the data set on T cells (PBMC) (setting [4]) is above 30 µM; at CD45 [2] (setting [5]), 1 µM; at CD45 [3] it was 2.4 µM.

For `Nc1ccc2c(c1)-c1ccccc1C(=O)C2=O` [Example 88, 3-Amino-phenanthrene-9,10-dione], the CC50 in data set [1] was 17 µM. The IC50 on CD45 [2] (setting [5]) is 3.74 µM; at CD45 [3], 10.5 µM.

Take `NC(=O)CC[C@H](NC(=O)[C@@H]1CCCN1C(=O)[C@H](CCC(=O)O)NC(=O)CNC(=O)c1ccc2c(c1)-c1ccccc1C(=O)C2=O)C(=O)NCC(=O)O` [Example 38] ({3Phenanthroyl(9,10-dioxo)}-GEPQG-OH): the figures for the IC50 against CD45 [2] and at CD45 [3] were 0.7 µM and 2.2 µM, respectively.

Take `COC(=O)CCCCCCC(=O)Nc1ccc2c(c1)C(=O)C(=O)c1ccccc1-2` [Example 71, 7-(9,10-Dioxo-9,10-dihydro-phenanthren-2-ylcarbamoyl)-heptanoic Acid Methyl Ester]: the CC50 in data set [1] is 14 µM. In addition, the half-maximal inhibitory concentration (IC50) on CD45 [2] (setting [5]) turned out to be 0.5 µM; at CD45 [3], 3.7 µM.

For `O=C1C(=O)c2cc(-c3ccccc3F)ccc2-c2ccccc21` [Example 18, 2-(2-Fluoro-phenyl)-phenanthrene-9,10-dione], the CC50 in data set [1] is 8.4 µM. At CD45 [2] (setting [5]), the IC50 was found to be 0.75 µM.

For `CC(C)(C)C(=O)Nc1ccc2c(c1)C(=O)C(=O)c1ccccc1-2` [Example 4, N-(9,10-Dioxo-9,10-dihydro-phenanthren-2-yl)-2,2-dimethyl-propionamide], the CC50 in data set [1] is 3.5 µM. In addition, the half-inhibitory concentration (IC50) on CD45 [2] (setting [5]) came out at 0.2 µM; at CD45 [3], 3.8 µM.

Take `COC(=O)CCC(=O)Nc1ccc2c(c1)C(=O)C(=O)c1cc(NC(=O)CCC(=O)OC)ccc1-2` [Example 82, N-[7-(3-Methoxycarbonyl-propionylamino)-9,10-dioxo-9,10-dihydro-phenanthren-2-yl]-succinamic Acid Methyl Ester]: the CC50 in data set [1] is 7 µM. Further, the IC50 came out at 0.5 µM on CD45 [2] (setting [5]) and 2.9 µM on CD45 [3].

For `O=C1C(=O)c2cccc([N+](=O)[O-])c2-c2ccc([N+](=O)[O-])cc21` [Example 95, 2,5-Dinitro-phenanthrene-9,10-dione], the IC50 with T cells (PBMC) (Homo sapiens) is above 30 µM. The CC50 in data set [1] is at least 30 µM.

On to `CC(=O)N[C@@H](Cc1ccccc1)C(=O)N[C@H](C(=O)N[C@@H](C)C(=O)N[C@H](C(=O)N[C@@H](CCC(=O)O)C(=O)NCC(=O)N[C@@H](CCC(N)=O)C(=O)N[C@@H](CC(=O)Nc1ccc2c(c1)C(=O)C(=O)c1ccccc1-2)C(=O)O)[C@@H](C)O)[C@@H](C)O` [Example 62] (Ac-FTATEGQD(X1)-OH), for which the IC50 on CD45 [2] (pH 7, read-out: pNPP IC50) was 1.4 µM.

As for `NC(=O)CC[C@H](NC(=O)c1ccc2c(c1)-c1ccccc1C(=O)C2=O)C(=O)N[C@@H](CCC(N)=O)C(=O)N1CCC[C@H]1C(=O)N[C@@H](CCC(=O)O)C(=O)NCC(=O)O` [Example 34] ({3Phenanthroyl(9,10-dioxo)}-QQPEG-OH), the figures for the half-maximal inhibitory concentration (IC50) against CD45 [2] and on CD45 [3] were 0.9 µM and 1.9 µM, respectively.

Regarding `CC(C)(C)OC(=O)CNC(=O)c1ccc2c(c1)-c1ccccc1C(=O)C2=O` [Example 102, [(9,10-dioxo-9,10-dihydro-phenanthrene-3-carbonyl)-amino]-acetic acid tert-butyl ester], the IC50 with T cells (PBMC) (setting [4]) worked out at 0.3 µM; on CD45 [3], 3.4 µM. Also, the CC50 in data set [1] is 2.5 µM.

Turning to `CC(=O)N[C@H](C(=O)N[C@@H](C)C(=O)N[C@H](C(=O)N[C@@H](CCC(=O)O)C(=O)NCC(=O)N[C@@H](CCC(N)=O)C(=O)N[C@@H](CC(=O)Nc1ccc2c(c1)C(=O)C(=O)c1ccccc1-2)C(=O)O)[C@@H](C)O)[C@@H](C)O` [Example 61] (Ac-TATEGQD(X1)-OH), at CD45 [2] (pH 7, read-out: pNPP IC50), the IC50 amounted to 1.8 µM.

Regarding `COC(=O)CCCCCCCCC(=O)Nc1ccc2c(c1)C(=O)C(=O)c1ccccc1-2` [Example 72, 9-(9,10-Dioxo-9,10-dihydro-phenanthren-2-ylcarbamoyl)-nonanoic Acid Methyl Ester], the IC50 on CD45 [2] (setting [5]) was above 30 µM.

Turning to `O=C1C(=O)c2cccc([N+](=O)[O-])c2-c2ccccc21` [Example 93, 4-Nitro-phenanthrene-9,10-dione], the CC50 in data set [1] was 10 µM. Moreover, the IC50 at CD45 [2] (setting [5]) turned out to be 0.5 µM; at CD45 [3], 3.9 µM.

In the case of `COc1ccccc1-c1ccc2c(c1)C(=O)C(=O)c1ccccc1-2` [Example 20, 2-(2-Methoxy-phenyl)-phenanthrene-9,10-dione], the half-maximal cytotoxic concentration (CC50) in data set [1] is 8.9 µM. At CD45 [2] (setting [5]), the IC50 worked out at 0.99 µM.

For the compound `COC(=O)CCC(=O)Nc1ccc2c(c1)-c1ccccc1C(=O)C2=O` [Example 90, N-(9,10-Dioxo-9,10-dihydro-phenanthren-3-yl)-succinamic Acid Methyl Ester], in data set [1], the CC50 was 18 µM. Besides, the IC50 worked out at 0.4 µM at CD45 [2] (setting [5]) and 3.2 µM on CD45 [3].

On to `Nc1ccc2c(c1)C(=O)C(=O)c1ccccc1-2` [Example 87, 2-Amino-phenanthrene-9,10-dione], for which the CC50 in data set [1] was 5 µM. Moreover, the IC50 at CD45 [2] (setting [5]) is 0.4 µM; on CD45 [3], 2.3 µM.
